Measured values reported in patent US8394362B2, “Gem difluorinated C-glycopeptides, their preparation and their use for the preservation of biological materials and/or in cryosugery” (priority 2004, dated 2013).
Where two headings read alike, the source gives them in different places.

How the values were obtained:
[1] = test system: HEK 293 cells; experiment: Preservation of HEK 293 kidney cells at low temperatures (Trypan blue cell count); assay type: cell-based
Experimental: The cells were then diluted to 75,000 cells/mL. Subsequently they were distributed over 6 plates with six 3 mL-wells per plate. This concentration is a good compromise between a concentration sufficiently low to prevent cell death by autocytotoxicity and sufficiently high to permit cell sampling and counting without any pre-concentration likely to reduce their survival. Each plate had two control wells not containing product 15, two wells with concentrations of product 15 adjusted to 0.01 mg/mL, and two others with 0.1 mg/mL. Each plate was then incubated at the following temperatures: 4° C., 2° C., 0° C., −2° C., −4° C., and −20° C. Each well was subsequently sampled at the following incubation times: 2, 8, and 22 hours.

[2] = test system: erythrocytes; experiment: Preservation of erythrocytes: haemolysis at different temperatures; assay type: cell-based, human
Experimental: The death of erythrocytes can be ascertained by rupture of the plasma membrane. This phenomenon is called haemolysis. Detection of haemolysis is the chief tool used in this experiment to determine the effect of product 15 at different temperatures on the preservation of erythrocytes. Blood sampling→Aliquots→Addition of AAGP (compound 15)→Various temperatures→Observation of haemolysis Product 15 was tested at concentrations of 0 mg/mL, 0.1 mg/mL, 1.0 mg/mL at temperatures of 3, 0, −3, −5, −10, −15, −23, −78° C. From a sample of human blood in a borosilicate heparinized tube, microtubes of 275 μL were filled to full capacity. One third of the microtubes were completed with 2.75 μL of product 15 (10 mg/mL in H2O), and one third of the microtubes were completed with 27.5 μL of product 15 (10 mg/mL in H2O). The blood was divided among the tubes to full capacity to prevent air contact as much as possible. […] The microtubes were frozen on a microtube support and the experiment was conducted using a slow-freeze apparatus at −78° C., whilst thawing was always conducted at room temperature on the microtube rack. After thawing, the microtubes were delicately homogenized by inverting a few times and a sample of erythrocytes was taken. […] Co is the initial Ery count • Cexp is the experimental Ery count Materials

[3] = test system: adult primary skin fibroblasts; experiment: Protection of adult primary skin fibroblasts in culture medium; assay type: cell-based; details: 15 mg/mL, after six days, culture media
Experimental: This test was extended to adult primary fibroblasts.
For adult fibroblasts, a culture medium (rich in factors) is used,
The concentration of product 15 is 15 mg/mL.

[4] = test system: H9c2(2-1) cells; assay type: cell-based, rat
Experimental: The test was conducted on rat heart myoblasts to consider application of these compounds for the preservation of organs such as the heart for subsequent transplant.
Another test was conducted on myoblasts at temperatures of 3° C. and −3° C. The purpose of the experiment this time was to increase the concentrations of glycoproteins 15 and 30 equimolar fashion (the molecular weight of the dimer being 2× greater than that of the monomer). The increase in concentration was 2.5 mg/mL for monomer 15 and 5 mg/mL for dimer 30. The temperatures were chosen over a range frequently used for the preservation of cells and tissues. The idea being subsequently to continue this experiment directly on tissues.

[5] = test system: blood platelets; experiment: Preservation of blood platelets: platelet clustering over 21 days; assay type: cell-based
Experimental: The purpose is to test product 15 on the preservation of blood platelets to improve current protocols which only allow their preservation for 5 days. The test was conducted at four different temperatures 22° C., 15° C., 4° C. and finally 0° C. Platelet follow-up lasted 21 days to examine platelet clustering. Clustering is one of the first and most definitive indicators of platelet degradation. During their degradation, the platelets become active, lose their morphology, become fibrous, form clusters and finally degenerate. A platelet count is made but the result is rather more based on the extent of clustering.

[6] = test system: CCD-27Sk fetal fibroblast skin cells
From the text: […] Materials

[7] = test system: embryonic fibroblasts; details: 15 mg/mL; 1 mM H2O2; 37° C.; after 10 hours; serum-free medium with 0.5 mM EDTA
[8] = test system: H9c2(2-1) cells; assay type: cell-based, rat; remark: listed apart in the source
[9] = 0.1 mg/mL, 40 min, −78° C. with slow cooling
[10] = 0.1 mg/mL, 2 h, 3, 0, −3, −5 and −10° C.
[11] = 0.1 mg/mL, 4 h, 3, 0, −3, −5 and −10° C.
[12] = 0.1 mg/mL, 9 h, 3, 0, −3, −5 and −10° C.
[13] = 0.1 mg/mL, 24 h, 3, 0, −3, −5 and −10° C.
[14] = 1.0 mg/mL, 40 min, −78° C. with slow cooling
[15] = 1.0 mg/mL, 2 h, 3, 0, −3, −5 and −10° C.
[16] = 1.0 mg/mL, 4 h, 3, 0, −3, −5 and −10° C.
[17] = 1.0 mg/mL, 9 h, 3, 0, −3, −5 and −10° C.
[18] = 1.0 mg/mL, 24 h, 3, 0, −3, −5 and −10° C.

C[C@H](NC(=O)[C@H](C)NC(=O)[C@@H](N)CCCCNC(=O)C(F)(F)C1(O)O[C@H](CO)[C@H](O)[C@H](O)[C@H]1O)C(=O)O (stereo partly drawn) [product 15]
cell survival compared with negative control ([1]; 0.01 mg/mL): does not appear to improve cell survival
cell survival rate compared with negative control ([1]; 0.10 mg/mL, five of six temperatures (4, 2, 0, −2, −4, −20° C.), 2, 8, 22 h): led to the best cell survival rates even if the improvement remained low
cell appearance and Trypan blue uptake after thawing ([1]; −20° C., after two hours): maintained the appearance of spherical retractile cells and did not absorb Trypan blue
cells remaining after re-incubation ([1]; −20° C., eight hours' incubation, both concentrations (0.01 and 0.1 mg/mL)): complete disappearance of all cells
% Haemolysis [2, 9]: 36%
% erythrocytes [2, 9]: 64%
% Ery [2, 10]: 100%
% Haemolysis [2, 10]: 0%
% Ery ([2]; 0.1 mg/mL, 2 h, −15° C.): 73%
% Haemolysis ([2]; 0.1 mg/mL, 2 h, −15° C.): 27%
Number of erythrocytes ([2]; 0.1 mg/mL, 2 h, −15° C.): 90
% Ery [2, 11]: 100%
% Haemolysis [2, 11]: 0%
% Ery ([2]; 0.1 mg/mL, 4 h, −15° C.): 0%
% Haemolysis ([2]; 0.1 mg/mL, 4 h, −15° C.): 100%
Number of erythrocytes ([2]; 0.1 mg/mL, 4 h, −15° C.): 0
% Ery [2, 12]: 100%
% Haemolysis [2, 12]: 0%
% Ery ([2]; 0.1 mg/mL, 9 h, −15° C.): 0%
% Haemolysis ([2]; 0.1 mg/mL, 9 h, −15° C.): 100%
Number of erythrocytes ([2]; 0.1 mg/mL, 9 h, −15° C.): 0
% Ery [2, 13]: 100%
% Haemolysis [2, 13]: 0%
% Haemolysis [2, 14]: 97%
% erythrocytes [2, 14]: 3%
% Ery [2, 15]: 100%
% Haemolysis [2, 15]: 0%
% Ery ([2]; 1.0 mg/mL, 2 h, −15° C.): 98%
% Haemolysis ([2]; 1.0 mg/mL, 2 h, −15° C.): 2%
Number of erythrocytes ([2]; 1.0 mg/mL, 2 h, −15° C.): 120
% Ery [2, 16]: 100%
% Haemolysis [2, 16]: 0%
% Ery ([2]; 1.0 mg/mL, 4 h, −15° C.): 100%
% Haemolysis ([2]; 1.0 mg/mL, 4 h, −15° C.): 0%
Number of erythrocytes ([2]; 1.0 mg/mL, 4 h, −15° C.): 133
% Ery [2, 17]: 100%
% Haemolysis [2, 17]: 0%
% Ery ([2]; 1.0 mg/mL, 9 h, −15° C.): 98%
% Haemolysis ([2]; 1.0 mg/mL, 9 h, −15° C.): 2%
Number of erythrocytes ([2]; 1.0 mg/mL, 9 h, −15° C.): 121
% Ery [2, 18]: 100%
% Haemolysis [2, 18]: 0%
protection of erythrocytes ([2]; temperature below −15° C., 1.0 mg/mL): no protection is observed
haemolysis ([2]; temperature range of 2 to −10° C., 0 to 24 hours, with or without product): no haemolysis
protection of erythrocytes ([2]; −15° C.): really protects the erythrocytes
protection of erythrocytes ([2]; −15° C., 4 and 9 hours, 1.0 mg/mL): complete protection
protection of erythrocytes ([2]; −15° C., after two hours, 0.1 mg/mL): partly protects the erythrocytes
protection of erythrocytes ([2]; −15° C., after two hours, 1.0 mg/mL): completely
relation of % haemolysis to concentration ([2]; −78° C. slow cooling, freezing point, after 40 minutes): direct correlation is observed between % haemolysis and concentrations of product 15
survival ([3]; 3° C.): 100%
cells protected ([3]; 15° C.): 100%
survival rate relative to control (control 19%) ([4]; 3° C. (FIG. 42 as printed), after 8 hours, monomer […], dimer 5 mg/mL): more than twice as high
cells preserved ([4]; after 16 hours, FIGS. 41 and 42, monomer […], dimer 5 mg/mL): approximately 90%
myoblasts still living ([4]; after 24 hours, FIGS. 41 and 42, monomer […], dimer 5 mg/mL): ~65%
efficacy versus concentration ([4]; −3° C. (FIG. 43), 1 mg/mL versus 2.5 / 5 mg/mL): greater efficacy at higher concentrations
platelet clustering ([5]; 0° C., with or without glycoprotein): no clustering is seen
platelet clustering ([5]; 4° C., irrespective of concentrations): almost no clustering is observed
platelet clustering compared with control ([5]; 15° C., over time): a greater increase in clustering is observed in the control than in the samples containing the compound
time up to which samples do not show any platelet clusters ([5]; 22° C., 1 mg/mL and 4 mg/mL): up to 7 days
platelet clustering ([5]; 22° C., 4 mg/mL (most concentrated samples)): the least clustering
platelet clustering compared with control ([5]; 22° C., 13, 17 and 21 days): true inhibition of platelet clustering
preservation of skin fibroblasts, overall ([6]; 5 mg/mL (8.6 mM), 22, 3, −3, −20° C.): better preservation in the presence of product 15 at all temperatures except at −20 °C
survival rates over time compared with control ([6]; 5 mg/mL, 22° C., 3° C., −3° C. (FIGS. 48 to 50)): much better survival rates
cell preservation with or without product ([6]; 5 mg/mL, 8 hours (FIG. 44), entire temperature range): no difference is found
cell survival rate compared with control ([6]; 5 mg/mL, 20 hours (FIG. 46)): better cell survival rate with monomer 15 than with the control
survival rate ([6]; 5 mg/mL, 20 hours (FIG. 46), −3° C.): 50%
cell preservation compared with control ([6]; 5 mg/mL, after 12 hours, 22° C. and −3° C.): better preservation
cell survival compared with control ([6]; 5 mg/mL, after 30 hours (FIG. 47), especially at 3° C.): distinct improvement
survival ([6]; 5 mg/mL, after 30 hours (FIG. 47), −3° C.): 70%
cell fate on freezing ([6]; 5 mg/mL, −20° C.): death of the cells after thawing
survival ([6]; 10 mg/mL, 15° C., after four days, low-serum media): 46%
cells preserved ([6]; 10 mg/mL, 37° C., after four days, low-serum media): approximately 100%
cell morphology ([6]; 10 mg/mL, Day 1 (FIG. 55)): preserve a spherical shape and maintain their integrity
cell survival rate versus concentration ([6]; 3 and −3° C., 20 and 34 hours, up to 15 mg/mL): improves cell survival rate
protective effect on cells ([6]; 3 and −3° C., concentrations up to 15 mg/mL, after 34 hours): ~100%
survival [7]: approximately 80%
number of living cells over incubation time ([8]; 1 mg/mL, −3° C. (FIG. 40)): slow decrease over incubation time in the number of living cells
dependence of cell survival rate on concentration ([8]; 0.1, 0.5 and 1 mg/mL): better results at 1 mg/mL than at 0.1 and 0.5 mg/mL
survival percentage over time ([8]; main experiment, 1 mg/mL, 4° C., up to 45 hours): better survival percentage over the entire duration of the experiment
survival ([8]; main experiment, 1 mg/mL, 22° C., after 45 hours): 65%
protective effect, monomer versus dimer ([8]; main experiment, 1 mg/mL, after 16 hours, 4° C.): gives the best results
cell survival compared with control ([8]; main experiment, 1 mg/mL, up to 8 hours, 22, 4, −3 and −10° C.): no significant difference
survival compared with control ([8]; main experiment, 1 mg/mL, −10° C.): slight improvement
survival percentage ([8]; preliminary experiment, 2° C. as printed (method −2° C.), 20 hours, 0.1 mg/mL): identical to the control
